Test results published in patent EP1289507B1, “USE OF AN ALDOSTERONE ANTAGONIST FOR THE TREATMENT OR PROPHYLAXIS OF ALDOSTERONE-MEDIATED PATHOGENIC EFFECTS” (priority 2000, dated 2001).

Columns and labels:
[1] = test system: captopril-treated, saline-drinking SHRSP; assay: Protocol 2: Angiotensin II-induced renal damage in captopril-treated saline-drinking SHRSP; assay type: in vivo, male SHRSP/A3N
Protocol: Animals. Studies were conducted in accordance with institutional guidelines using male SHRSP/A3N (generations F-75 to F-78), n = 37, from our local colony. These animals were bred from NIH stock, derived from the SHRSP/A3N substrain described originally by Okamoto and coworkers (Okamoto K et al. Circ. Res. 34 and 35 (suppl I):I-143-I-153.). All animals were housed in a room maintained on a 12:12-h light:dark-cycle and an ambient temperature of 22 ± 1°C in the Animal Care Facility at New York Medical College. Rats were weaned at 4 weeks of age and allowed free access to Purina Lab Chow 5001 (Ralston Purina, St. Louis, MO) and tap water until the initiation of experimental protocols.
SHRSP were placed on Stroke-Prone Rodent Diet (#39-288, Zeigler Bros Inc., Gardners, PA) and 1% NaCl drinking solution ad libitum starting at 8.3 weeks of age. […] Animals were handled and weighed daily. Urine samples were collected for the assessment of proteinuria. Systolic blood pressure and heart rate were measured each week. After 2 weeks of treatment, animals were decapitated, trunk blood was collected into chilled EDTA tubes, and the kidneys were removed, blotted dry, and immediately weighed. Coronal sections of kidney were fixed and later processed for light microscopic evaluation.
Assays and Analyses. Systolic blood pressure and heart rate of awake animals were measured by tail-cuff plethysmography using a Natsume KN-210 manometer and tachometer (Peninsula Laboratories Inc., Belmont, CA). Rats were warmed at 37°C for 10 min and allowed to rest quietly in a Lucite chamber before measurement of blood pressure. Measurements of urine volume were made gravimetrically. Urinary protein concentration was determined by the sulfosalicylic acid turbidity method. Plasma aldosterone was measured by radioimmunoassay using ^125I-aldosterone as a tracer (Coat-a Count Aldosterone, Diagnostic Products Co., Los Angeles, CA).
Histology. Kidneys were preserved in 10% phosphate-buffered formalin. Coronal sections (2-3 µm) were stained with hematoxylin and eosin and examined by light microscopy in a blinded fashion as previously described (Stier CT et al. J Pharmacol Exp Ther (1992) 260:1410-1415). Glomerular damage was categorized as ischemic or thrombotic. Ischemic lesions were defined as retraction of glomerular capillary tufts with or without appreciable mesangiolysis. Glomerular thrombotic lesions were defined as any one of a combination of the following: segmental to global fibrinoid necrosis, focal thrombosis of glomerular capillaries, swelling and proliferation of intracapillary (endothelial and mesangial) and/or extracapillary cells (crescents), and expansion of reticulated mesangial matrix with or without significant hypercellularity. […] Vascular thrombotic lesions were defined as any one or a combination of the following: mural fibrinoid necrosis, extravasation and fragmentation of red blood cells, and luminal and/or mural thrombosis. Proliferative arteriopathy was characterized by proliferation of markedly swollen myointimal cells with swollen round to ovoid vesicular nuclei surrounded by mucinous extracellular matrix ("onion skinning") often resulting in nodular thickening. Vascular damage was expressed as the number of arteries and arterioles with lesions per 100 glomeruli. The presence of casts and tubular (ischemic) retraction and simplification was assessed semiquantitatively.
Statistical Analysis. Significant effects with respect to treatment and time were determined by two-way analysis of variance. Data with only one grouping variable were analyzed statistically by Student's unpaired t tests. When more than two groups were compared, one-way analysis of variance was performed followed by the post-hoc Newman-Keul's multiple comparison test. Data were analyzed using version 2.01 of the GraphPad Prism statistical software package (GraphPad Software Inc., San Diego, CA). P < .05 was considered statistically significant. Data are reported as mean ± SEM.

[2] = Food effect pharmacokinetic studies, Japan and Ex-Japan; assay type: in vivo, Japanese (Japan) and European (Ex-Japan) subjects
Protocol: The Ex-Japan trials included (i) a single dose tolerability trial, and (ii) a multiple dose tolerability trial, and (iii) a food effect study.
Both single dose and multiple dose tolerability trials were conducted in Japan utilizing healthy male Japanese subjects. […] Six subjects who received the 100 mg dose also participated in the food effect treatment arm of the single dose tolerability trial.
Table A-11C contains the geometric least squares means for the fed and fasting regimens, the ratios of means and the corresponding 95% confidence intervals (CI) for the ratios of the means for the Japan and Ex-Japan food effect trials.
Each panel consisted of six subjects who were given eplerenone and two subjects who were given placebo.

[3] = test system: stroke-prone spontaneously hypertensive rats; conditions: cited from earlier work
[4] = test system: aortas of New Zealand white rabbits on normal or 1 % cholesterol chow; assay: Endothelial function (isometric tension, superoxide generation) of aortas in diet induced atherosclerosis; assay type: in vivo; conditions: for % NTG (peak relaxation to nitroglycerin) / %Ach (peak relaxation to acetylcholine): eplerenone 50 mg/kg twice daily; for %Ach (peak relaxation to acetylcholine): 6 weeks; for O2 counts: lucigenin chemiluminescence
Protocol: Methods: New Zealand white rabbits were randomized to four treatment groups. 32 Rabbits were placed on normal (NC) or 1 % cholesterol chow (HC) for a duration of 8 weeks. […] Rabbits were euthanized at the end of 8 weeks and the aortas extracted for isometric tension studies and estimation of superoxide (O2^-) generation in vessel segments by lucigenin chemiluminescence (250 µM). Vessels were preconstricted with phenylephrine (3 x 10^-7) to approximately 50% of peak constriction and dose responses to acetylcholine (Ach) and nitroglycerin (NTG) tested.

[5] = captopril plus vehicle, or captopril plus angiotensin II plus eplerenone

## COC(=O)[C@@H]1CC2=CC(=O)CC[C@]2(C)[C@@]23O[C@@H]2C[C@@]2(C)[C@@H](CC[C@@]24CCC(=O)O4)[C@H]13 [Eplerenone, Pregn-4-ene-7,21-dicarboxylic acid, 9,11-epoxy-17-hydroxy-3-oxo-, γ-lactone, methyl ester, (7α, 11α, 17β)-]
[1]; Captopril 50 mg/kg/d + vehicle, or CAP, Angiotensin II 25 ng/min + Eplerenone 100 mg/kg/d, 2 weeks
  Glomerular damage, Ischemic: 3.0 ± 1.0 lesions/100 glomeruli
[1]; as Table A-8B, 2 weeks
  Glomerular damage, Thrombotic: 1.0 ± 0.3 lesions/100 glomeruli
  Glomerular damage, Total: 3.0 ± 1.0 lesions/100 glomeruli
  Renal arteriopathy, Proliferative: 0.1 ± 0.1 lesions/100 glomeruli
  Renal arteriopathy, Thrombotic: 4.0 ± 1.0 lesions/100 glomeruli
  Renal arteriopathy, Total: 4.0 ± 1.0 lesions/100 glomeruli
[1]; captopril plus angiotensin II plus eplerenone 100 mg/kg/d
  renal damage: 3 ± 1%
[1]; [5]
  Preterminal systolic blood pressure: 231 ± 5 mm Hg
  tubules with ischemic retraction and simplification: 2.5 ± 0.9%
[1]; end of study (2 weeks), captopril 50 mg/kg/d plus vehicle, or captopril plus angiotensin II 25 ng/min plus eplerenone 100 mg/kg/d
  proteinuria (urinary protein excretion): 28 ± 5 mg/day
[2]; Ex-Japan Food Effect Study
  AUC (0-lqc), Mean Ratio: 1.079
  Cmax, Mean Ratio (fed/fasted): 0.814
[2]; Japan Food Effect Study
  AUC (0-inf), Mean Ratio: 1.218
  AUC (0-lqc), Mean Ratio: 1.218
  Cmax, Mean Ratio (fed/fasted): 1.157
[2]; human, in vivo
  AUC (0-inf), Mean Ratio: 1.079
[3]
  proteinuria, renal lesions and hypertension: prevented proteinuria and renal lesions but not severe hypertension
[4]; 1 % cholesterol chow (HC)
  % NTG (peak relaxation to nitroglycerin): 112±4%
  %Ach (peak relaxation to acetylcholine): 82±6 %
  O2 counts: 1400±504 per mg of dry weight
[4]; normal chow (NC)
  % NTG (peak relaxation to nitroglycerin): 107±2%
  %Ach (peak relaxation to acetylcholine): 97±3%
  O2 counts: 1110±373 per mg of dry weight
